For 38 compounds, pest or weed control results are on record in US20200288710A1, “SUBSTITUTED SULPHONAMIDES FOR CONTROLLING ANIMAL PESTS” (BAYER CROPSCIENCE AKTIENGESELLSCHAFT, priority 2016, published 2020).

What all share (assay type): in vivo
The subject of experiment [1] is Myzus persicae. The experiment is described as follows: Myzus persicae spray test (Chinese cabbage leaf discs). As to conditions: foliar, 120 h, after 5-6 days, read-out: efficacy. The method, boiled down: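 Chinese cabbage leaf discs infested with all stages of green peach aphid were sprayed with compound formulated in acetone/DMF and emulsifier-containing water. Efficacy in % was scored after 5-6 days, with 100% meaning all aphids killed and 0% none killed.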

The next experiment concerns Meloidogyne incognita. In words: Meloidogyne incognita test. Conditions: 336 h, lettuce, after 14 days, read-out: nematicidal efficacy (formation of galls). The method, boiled down: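 Active compound in acetone, diluted with water, added to sand-filled vessels with M. incognita eggs/larvae and lettuce seeds. After 14 days, efficacy scored by root gall formation: 100% = no galls, 0% = galls equal to untreated control.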

Experiment [2] has as its system Myzus persicae. In words: Myzus persicae oral test. Conditions: 120 h, 20 ppm, oral uptake, after 5 days, read-out: efficacy. The procedure, abridged: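 Compound dissolved in acetone, diluted in water, then mixed 50:150 μl with IPL41 insect medium (33%+15% sugar). Mixed-population green peach aphids feed through a parafilm seal on the solution; mortality scored as % efficacy after 5 days (100% = all killed).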

On to `CCc1ccsc1S(=O)(=O)NC(=O)c1cn(C)c(-c2c(F)cccc2F)n1` [Example 419], for which the pest or weed control at 500 g/ha in the experiment on Myzus persicae [1] stood at 100%. In addition, the pest or weed control at 20 ppm was determined as 90% in the experiment with Meloidogyne incognita and 100% in the experiment with Myzus persicae [2].

`Cn1cc(C(=O)NS(=O)(=O)c2sccc2Br)nc1-c1ccccc1Cl` [Example 421]: the pest or weed control at 500 g/ha in the experiment on Myzus persicae [1] came out at 100%. For the same compound, the pest or weed control at 20 ppm with Meloidogyne incognita was 90%; in the experiment with Myzus persicae [2], 100%.

With `CSc1cccc(Cl)c1S(=O)(=O)NC(=O)c1cn(C)c(-c2ccccc2Cl)n1` [Example 422], the pest or weed control at 500 g/ha with Myzus persicae [1] was found to be 90%. The pest or weed control at 20 ppm was 90% with Meloidogyne incognita and 100% in the experiment with Myzus persicae [2].

As to `Cn1cc(C(=O)NS(=O)(=O)c2sc(Cl)cc2Br)nc1-c1ccccc1Cl` [Example 426], in the experiment on Myzus persicae [1], the pest or weed control at 500 g/ha amounted to 100%. Also, the pest or weed control at 20 ppm with Meloidogyne incognita turned out to be 90%; in the experiment with Myzus persicae [2], 100%.

For `COc1ccc(F)cc1S(=O)(=O)NC(=O)c1cn(C)c(-c2ccccc2Cl)n1` [Example 427], the pest or weed control at 500 g/ha in the experiment on Myzus persicae [1] was determined as 100%. For the same compound, the pest or weed control at 20 ppm in the experiment with Meloidogyne incognita is 90%; with Myzus persicae [2], 100%.

As for `Cn1cc(C(=O)NS(=O)(=O)c2c(F)cccc2Cl)nc1-c1c(F)cccc1F` [Example 431], in the experiment with Myzus persicae [1], the pest or weed control at 500 g/ha amounted to 90%. Besides, the values for the pest or weed control at 20 ppm in the experiment with Meloidogyne incognita and in the experiment on Myzus persicae [2] were 90% and 100%, respectively.

In the case of `Cn1cc(C(=O)NS(=O)(=O)c2c(Cl)cc(Cl)cc2Cl)nc1-c1c(F)cccc1F` [Example 435], the pest or weed control at 500 g/ha in the experiment with Myzus persicae [1] was 100%. Also, the values for the pest or weed control at 20 ppm with Meloidogyne incognita and in the experiment on Myzus persicae [2] were 90% and 100%, respectively.

Consider `Cn1cc(C(=O)NS(=O)(=O)c2ccc(Br)cc2F)nc1-c1c(F)cccc1F` [Example 437], for which the pest or weed control at 500 g/ha in the experiment with Myzus persicae [1] is 100%. Moreover, the results for the pest or weed control at 20 ppm with Meloidogyne incognita and in the experiment with Myzus persicae [2] were 90% and 100%, respectively.

Take `Cn1cc(C(=O)NS(=O)(=O)c2ccc(F)cc2Br)nc1-c1c(F)cccc1F` [Example 438]: the pest or weed control at 500 g/ha with Myzus persicae [1] came to 100%. Further, the pest or weed control at 20 ppm with Meloidogyne incognita and with Myzus persicae [2] was 90% in each case.

In the case of `Cn1cc(C(=O)NS(=O)(=O)c2ccc(Br)cc2Cl)nc1-c1c(F)cccc1F` [Example 440], the pest or weed control at 500 g/ha in the experiment on Myzus persicae [1] was found to be 100%. Moreover, the pest or weed control at 20 ppm in the experiment on Meloidogyne incognita and in the experiment with Myzus persicae [2] was 100% in each case.

With `Cc1ccc(S(=O)(=O)NC(=O)c2cn(C)c(-c3c(F)cccc3F)n2)c(C)c1` [Example 443], the pest or weed control at 500 g/ha in the experiment on Myzus persicae [1] turned out to be 90%. Further, the pest or weed control at 20 ppm in the experiment with Meloidogyne incognita and in the experiment with Myzus persicae [2] was 100% in each case.

For the compound `Cc1cc(F)ccc1S(=O)(=O)NC(=O)c1cn(C)c(-c2c(F)cccc2F)n1` [Example 444], the pest or weed control at 500 g/ha with Myzus persicae [1] was 90%. In addition, the pest or weed control at 20 ppm with Meloidogyne incognita and in the experiment on Myzus persicae [2] was 100% each time.

As for `Cn1cc(C(=O)NS(=O)(=O)c2cc(C(F)(F)F)ccc2Cl)nc1-c1c(F)cccc1F` [Example 453], in the experiment with Myzus persicae [1], the pest or weed control at 500 g/ha was found to be 90%. The pest or weed control at 20 ppm in the experiment with Meloidogyne incognita was found to be 90%; in the experiment on Myzus persicae [2], 100%.

Take `CCc1ccccc1-c1nc(C(=O)NS(=O)(=O)c2ccccc2C)cn1C` [Example 497]: the pest or weed control at 500 g/ha with Myzus persicae [1] was found to be 90%. For the same compound, the values for the pest or weed control at 20 ppm with Meloidogyne incognita and in the experiment with Myzus persicae [2] were 90% and 100%, respectively.

For the compound `Cn1cc(C(=O)NS(=O)(=O)c2ccccc2Cl)nc1-c1ncccc1F` [Example 499], in the experiment with Myzus persicae [1], the pest or weed control at 500 g/ha came out at 100%. The pest or weed control at 20 ppm in the experiment with Meloidogyne incognita is 90%; in the experiment with Myzus persicae [2], 100%.

Regarding `Cc1ccccc1S(=O)(=O)NC(=O)c1cn(C)c(-c2ncccc2F)n1` [Example 500], the pest or weed control at 500 g/ha in the experiment on Myzus persicae [1] is 100%. Besides, the pest or weed control at 20 ppm in the experiment on Meloidogyne incognita is 90%; in the experiment on Myzus persicae [2], 100%.

On to `CCc1ccccc1S(=O)(=O)NC(=O)c1cn(C)c(-c2cccc3ccccc23)n1` [Example 503], for which the pest or weed control at 500 g/ha with Myzus persicae [1] is 90%. Moreover, the figures for the pest or weed control at 20 ppm with Meloidogyne incognita and in the experiment with Myzus persicae [2] were 90% and 100%, respectively.

For `Cn1cc(C(=O)NS(=O)(=O)c2ccccc2Cl)nc1-c1cccc(F)c1F` [Example 512], the pest or weed control at 500 g/ha in the experiment on Myzus persicae [1] is 90%. The figures for the pest or weed control at 20 ppm with Meloidogyne incognita and with Myzus persicae [2] were 90% and 100%, respectively.

`Cn1cc(C(=O)NS(=O)(=O)c2ccccc2Cl)nc1-c1cccc(Cl)c1Cl` [Example 513]: in the experiment on Myzus persicae [1], the pest or weed control at 500 g/ha turned out to be 100%. The pest or weed control at 20 ppm in the experiment with Meloidogyne incognita and with Myzus persicae [2] was 100% in each case.

On to `COc1ccc(Cl)c(S(=O)(=O)NC(=O)c2cn(C)c(-c3ncccc3F)n2)c1` [Example 514], for which the pest or weed control at 500 g/ha in the experiment with Myzus persicae [1] came out at 100%. The pest or weed control at 20 ppm with Meloidogyne incognita worked out at 90%; with Myzus persicae [2] it was 100%.

With `Cn1cc(C(=O)NS(=O)(=O)c2ccccc2Cl)nc1-c1cc(F)ccc1F` [Example 515], the pest or weed control at 500 g/ha in the experiment on Myzus persicae [1] stood at 90%. Further, the results for the pest or weed control at 20 ppm with Meloidogyne incognita and in the experiment on Myzus persicae [2] were 90% and 100%, respectively.

For the compound `Cc1ccccc1S(=O)(=O)NC(=O)c1cn(C)c(-c2cc(F)ccc2F)n1` [Example 520], the pest or weed control at 500 g/ha in the experiment on Myzus persicae [1] came to 90%. The pest or weed control at 20 ppm in the experiment on Meloidogyne incognita and in the experiment with Myzus persicae [2] was 100% in each case.

On to `COc1ccccc1S(=O)(=O)NC(=O)c1cn(C)c(-c2cccc(F)c2F)n1` [Example 528], for which the pest or weed control at 500 g/ha in the experiment with Myzus persicae [1] came to 100%. Further, the pest or weed control at 20 ppm in the experiment on Meloidogyne incognita amounted to 90%; in the experiment on Myzus persicae [2], 100%.

As to `Cn1cc(C(=O)NS(=O)(=O)c2ccccc2Cl)nc1-c1sccc1Cl` [Example 547], the pest or weed control at 500 g/ha in the experiment on Myzus persicae [1] worked out at 90%. For the same compound, the pest or weed control at 20 ppm came out at 100% in the experiment on Meloidogyne incognita and 90% in the experiment with Myzus persicae [2].

Take `CCc1ccccc1S(=O)(=O)NC(=O)c1cn(C)c(-c2cccc(Cl)c2Cl)n1` [Example 553]: the pest or weed control at 500 g/ha in the experiment with Myzus persicae [1] was found to be 100%. Besides, the pest or weed control at 20 ppm in the experiment with Meloidogyne incognita turned out to be 90%; with Myzus persicae [2], 100%.

In the case of `COc1ccc(Cl)c(S(=O)(=O)NC(=O)c2cn(C)c(-c3cccc(Cl)c3Cl)n2)c1` [Example 554], the pest or weed control at 500 g/ha with Myzus persicae [1] was 90%. Moreover, the pest or weed control at 20 ppm was 90% in the experiment with Meloidogyne incognita and 100% in the experiment with Myzus persicae [2].

As for `Cn1cc(C(=O)NS(=O)(=O)c2ccccc2Br)nc1-c1cccc(Cl)c1Cl` [Example 555], the pest or weed control at 500 g/ha with Myzus persicae [1] came out at 90%. Further, the figures for the pest or weed control at 20 ppm in the experiment with Meloidogyne incognita and with Myzus persicae [2] were 90% and 100%, respectively.

Consider `COc1ccc(Br)c(S(=O)(=O)NC(=O)c2cn(C)c(-c3cccc(Cl)c3Cl)n2)c1` [Example 557], for which, in the experiment with Myzus persicae [1], the pest or weed control at 500 g/ha stood at 90%. Also, the pest or weed control at 20 ppm came out at 90% with Meloidogyne incognita and 100% in the experiment with Myzus persicae [2].

As for `Cc1ccsc1S(=O)(=O)NC(=O)c1cn(C)c(-c2cccc(Cl)c2Cl)n1` [Example 560], the pest or weed control at 500 g/ha in the experiment with Myzus persicae [1] stood at 100%. In addition, the pest or weed control at 20 ppm in the experiment on Meloidogyne incognita and with Myzus persicae [2] was 100% each time.

Take `COc1ccccc1S(=O)(=O)NC(=O)c1cn(C)c(-c2cccc(Cl)c2Cl)n1` [Example 567]: the pest or weed control at 500 g/ha with Myzus persicae [1] stood at 100%. For the same compound, the pest or weed control at 20 ppm in the experiment with Meloidogyne incognita was found to be 90%; in the experiment with Myzus persicae [2], 100%.

In the case of `Cn1cc(C(=O)NS(=O)(=O)c2c(Cl)cccc2Cl)nc1-c1ncccc1Cl` [Example 588], the pest or weed control at 500 g/ha in the experiment with Myzus persicae [1] is 90%. The pest or weed control at 20 ppm was 90% in the experiment with Meloidogyne incognita and 100% with Myzus persicae [2].

On to `COc1ccc(C)c(S(=O)(=O)NC(=O)c2cn(C)c(-c3ncccc3F)n2)c1` [Example 593], for which the pest or weed control at 500 g/ha in the experiment with Myzus persicae [1] is 100%. Besides, the results for the pest or weed control at 20 ppm with Meloidogyne incognita and in the experiment with Myzus persicae [2] were 90% and 100%, respectively.

As for `Cn1cc(C(=O)NS(=O)(=O)c2c(Cl)cccc2Cl)nc1-c1ncccc1F` [Example 594], the pest or weed control at 500 g/ha in the experiment on Myzus persicae [1] was 90%. Moreover, the figures for the pest or weed control at 20 ppm in the experiment on Meloidogyne incognita and in the experiment on Myzus persicae [2] were 90% and 100%, respectively.

As for `Cn1cc(C(=O)NS(=O)(=O)c2c(Cl)cccc2Br)nc1-c1ncccc1F` [Example 595], in the experiment on Myzus persicae [1], the pest or weed control at 500 g/ha came to 90%. Further, the pest or weed control at 20 ppm amounted to 90% in the experiment on Meloidogyne incognita and 100% with Myzus persicae [2].

`COc1ccc(F)cc1S(=O)(=O)NC(=O)c1cn(C)c(-c2ncccc2F)n1` [Example 596]: the pest or weed control at 500 g/ha with Myzus persicae [1] amounted to 100%. Besides, the pest or weed control at 20 ppm came to 90% with Meloidogyne incognita and 100% with Myzus persicae [2].

Consider `Cn1cc(C(=O)NS(=O)(=O)c2c(Cl)cccc2C(F)(F)F)nc1-c1ncccc1Cl` [Example 600], for which, in the experiment with Myzus persicae [1], the pest or weed control at 500 g/ha came to 100%. Moreover, the pest or weed control at 20 ppm in the experiment with Meloidogyne incognita and in the experiment on Myzus persicae [2] was 100% each time.

Take `CCc1ccsc1S(=O)(=O)NC(=O)c1cn(C)c(-c2ncccc2Cl)n1` [Example 605]: the pest or weed control at 500 g/ha in the experiment on Myzus persicae [1] came to 100%. Further, the pest or weed control at 20 ppm in the experiment with Meloidogyne incognita is 90%; with Myzus persicae [2], 100%.

Consider `CCc1[nH]c(-c2cccc(C(C)C)c2)nc1C(=O)NS(=O)(=O)c1ccccc1Cl` [Example 613], for which, in the experiment with Myzus persicae [1] (100 g/ha), the pest or weed control at 100 g/ha was 90%. In addition, the pest or weed control at 20 ppm in the experiment on Meloidogyne incognita came out at 90%; in the experiment on Myzus persicae [2], 100%.
